Laboratory results from PMC6199744, “Development of Chemical Proteomics for the Folateome and Analysis of the Kinetoplastid Folateome” (ACS Infectious Diseases, 2018).
Like-named read-outs stand apart in the source and are kept apart here.

Legend:
Assay type in all cases: binding
[1] = target: T1, HeLa cell extract proteins (Homo sapiens, UniProt P28066)
T1 construct: endogenous in cells; host or cells: HeLa cell extract
T1 sequence (P28066 1-241): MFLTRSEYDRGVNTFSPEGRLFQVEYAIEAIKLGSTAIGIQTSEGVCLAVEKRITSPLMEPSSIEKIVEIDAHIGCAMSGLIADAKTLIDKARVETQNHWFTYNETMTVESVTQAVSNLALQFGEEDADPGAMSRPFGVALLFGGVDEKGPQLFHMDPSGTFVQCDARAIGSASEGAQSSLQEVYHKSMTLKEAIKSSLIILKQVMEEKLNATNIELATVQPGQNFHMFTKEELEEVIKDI

[2] = target: T2, HeLa cell extract proteins (Homo sapiens, UniProt Q9UI12)
T2 construct: endogenous in cells; host or cells: HeLa cell extract

[3] = target: T3, HeLa cell extract proteins (Homo sapiens, UniProt P23526)
T3 construct: endogenous in cells; host or cells: HeLa cell extract

[4] = target: T4, HeLa cell extract proteins (Homo sapiens, UniProt P32119)
T4 construct: endogenous in cells; host or cells: HeLa cell extract
T4 sequence (P32119 1-198): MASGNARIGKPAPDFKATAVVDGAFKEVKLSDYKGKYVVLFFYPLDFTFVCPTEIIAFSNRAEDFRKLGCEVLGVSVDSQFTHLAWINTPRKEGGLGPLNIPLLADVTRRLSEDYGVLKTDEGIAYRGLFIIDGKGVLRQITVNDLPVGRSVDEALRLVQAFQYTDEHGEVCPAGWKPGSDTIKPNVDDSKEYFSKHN

[5] = target: T5, HeLa cell extract proteins (Homo sapiens, UniProt Q9UBN7)
T5 construct: endogenous in cells; host or cells: HeLa cell extract
T5 sequence (Q9UBN7 1-1215): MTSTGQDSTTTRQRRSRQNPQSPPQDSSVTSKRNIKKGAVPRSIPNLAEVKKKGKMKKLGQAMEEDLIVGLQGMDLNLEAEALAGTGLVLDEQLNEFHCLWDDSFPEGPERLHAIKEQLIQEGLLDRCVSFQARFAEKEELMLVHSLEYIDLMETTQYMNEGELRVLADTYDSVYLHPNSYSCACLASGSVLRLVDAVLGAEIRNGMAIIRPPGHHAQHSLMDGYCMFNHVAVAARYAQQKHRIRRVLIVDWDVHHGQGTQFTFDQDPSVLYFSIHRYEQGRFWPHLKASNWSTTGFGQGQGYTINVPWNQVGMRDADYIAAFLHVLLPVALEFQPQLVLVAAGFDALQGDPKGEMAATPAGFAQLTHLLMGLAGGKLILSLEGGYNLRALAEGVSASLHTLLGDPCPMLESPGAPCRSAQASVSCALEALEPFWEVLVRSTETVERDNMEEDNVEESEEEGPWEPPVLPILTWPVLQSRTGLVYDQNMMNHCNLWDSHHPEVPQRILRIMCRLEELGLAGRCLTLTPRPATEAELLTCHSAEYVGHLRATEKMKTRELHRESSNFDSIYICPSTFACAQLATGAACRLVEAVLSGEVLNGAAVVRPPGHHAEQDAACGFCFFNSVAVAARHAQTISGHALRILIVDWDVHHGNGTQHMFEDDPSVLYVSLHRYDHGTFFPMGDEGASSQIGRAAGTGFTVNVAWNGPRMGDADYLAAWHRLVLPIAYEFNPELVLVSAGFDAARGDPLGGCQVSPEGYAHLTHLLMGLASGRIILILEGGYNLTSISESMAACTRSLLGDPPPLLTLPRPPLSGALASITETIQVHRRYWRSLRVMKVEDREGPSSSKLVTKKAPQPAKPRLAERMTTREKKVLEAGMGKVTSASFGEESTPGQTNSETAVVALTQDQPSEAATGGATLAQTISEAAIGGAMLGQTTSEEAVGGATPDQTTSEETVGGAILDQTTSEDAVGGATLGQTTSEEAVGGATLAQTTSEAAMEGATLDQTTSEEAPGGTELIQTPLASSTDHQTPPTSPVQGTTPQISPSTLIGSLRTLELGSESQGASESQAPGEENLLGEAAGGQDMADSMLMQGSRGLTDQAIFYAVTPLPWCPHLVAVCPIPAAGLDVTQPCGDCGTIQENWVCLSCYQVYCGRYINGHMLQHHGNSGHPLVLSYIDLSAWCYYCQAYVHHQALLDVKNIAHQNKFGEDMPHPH

[6] = target: T6, HeLa cell extract proteins (Homo sapiens, UniProt Q9H903)
T6 construct: endogenous in cells; host or cells: HeLa cell extract
T6 sequence (Q9H903 1-347): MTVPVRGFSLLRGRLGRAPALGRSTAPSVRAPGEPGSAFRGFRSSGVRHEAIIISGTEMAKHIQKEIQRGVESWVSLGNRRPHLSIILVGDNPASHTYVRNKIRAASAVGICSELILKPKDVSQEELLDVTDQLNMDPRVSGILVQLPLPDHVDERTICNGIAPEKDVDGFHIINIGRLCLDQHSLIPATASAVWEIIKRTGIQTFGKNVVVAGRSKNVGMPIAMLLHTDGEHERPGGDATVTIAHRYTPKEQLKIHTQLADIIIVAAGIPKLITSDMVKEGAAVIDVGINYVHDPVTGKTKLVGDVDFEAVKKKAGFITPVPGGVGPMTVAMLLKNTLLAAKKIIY

[7] = target: T7, HeLa cell extract proteins (Homo sapiens, UniProt P00491)
T7 construct: endogenous in cells; host or cells: HeLa cell extract
T7 sequence (P00491 1-289): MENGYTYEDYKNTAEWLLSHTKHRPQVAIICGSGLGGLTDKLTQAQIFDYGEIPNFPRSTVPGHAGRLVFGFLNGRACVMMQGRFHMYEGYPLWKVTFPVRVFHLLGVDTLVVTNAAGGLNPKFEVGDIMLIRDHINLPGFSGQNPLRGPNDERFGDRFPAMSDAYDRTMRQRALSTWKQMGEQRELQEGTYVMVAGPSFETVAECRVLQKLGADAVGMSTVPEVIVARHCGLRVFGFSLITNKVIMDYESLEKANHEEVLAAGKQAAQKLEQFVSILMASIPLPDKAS

[8] = target: T8, HeLa cell extract proteins (Homo sapiens, UniProt Q99460)
T8 construct: endogenous in cells; host or cells: HeLa cell extract

[9] = target: T9, HeLa cell extract proteins (Homo sapiens, UniProt P04080)
T9 construct: endogenous in cells; host or cells: HeLa cell extract
T9 sequence (P04080 1-98): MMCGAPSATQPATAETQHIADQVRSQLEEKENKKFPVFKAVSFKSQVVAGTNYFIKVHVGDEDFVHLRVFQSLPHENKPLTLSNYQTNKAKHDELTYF

T3 sequence (P23526 whole entry): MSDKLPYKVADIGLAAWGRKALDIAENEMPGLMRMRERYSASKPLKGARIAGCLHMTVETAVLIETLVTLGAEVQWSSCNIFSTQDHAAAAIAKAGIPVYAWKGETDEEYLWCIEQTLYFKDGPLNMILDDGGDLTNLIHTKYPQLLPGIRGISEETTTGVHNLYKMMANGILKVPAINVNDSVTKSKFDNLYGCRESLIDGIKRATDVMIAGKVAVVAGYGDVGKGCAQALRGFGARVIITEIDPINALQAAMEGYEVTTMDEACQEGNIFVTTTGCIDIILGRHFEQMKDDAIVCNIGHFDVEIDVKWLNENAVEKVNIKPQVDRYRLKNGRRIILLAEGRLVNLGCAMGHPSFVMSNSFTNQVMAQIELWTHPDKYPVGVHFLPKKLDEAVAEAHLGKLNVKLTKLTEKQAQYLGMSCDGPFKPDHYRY
T8 sequence (Q99460 whole entry): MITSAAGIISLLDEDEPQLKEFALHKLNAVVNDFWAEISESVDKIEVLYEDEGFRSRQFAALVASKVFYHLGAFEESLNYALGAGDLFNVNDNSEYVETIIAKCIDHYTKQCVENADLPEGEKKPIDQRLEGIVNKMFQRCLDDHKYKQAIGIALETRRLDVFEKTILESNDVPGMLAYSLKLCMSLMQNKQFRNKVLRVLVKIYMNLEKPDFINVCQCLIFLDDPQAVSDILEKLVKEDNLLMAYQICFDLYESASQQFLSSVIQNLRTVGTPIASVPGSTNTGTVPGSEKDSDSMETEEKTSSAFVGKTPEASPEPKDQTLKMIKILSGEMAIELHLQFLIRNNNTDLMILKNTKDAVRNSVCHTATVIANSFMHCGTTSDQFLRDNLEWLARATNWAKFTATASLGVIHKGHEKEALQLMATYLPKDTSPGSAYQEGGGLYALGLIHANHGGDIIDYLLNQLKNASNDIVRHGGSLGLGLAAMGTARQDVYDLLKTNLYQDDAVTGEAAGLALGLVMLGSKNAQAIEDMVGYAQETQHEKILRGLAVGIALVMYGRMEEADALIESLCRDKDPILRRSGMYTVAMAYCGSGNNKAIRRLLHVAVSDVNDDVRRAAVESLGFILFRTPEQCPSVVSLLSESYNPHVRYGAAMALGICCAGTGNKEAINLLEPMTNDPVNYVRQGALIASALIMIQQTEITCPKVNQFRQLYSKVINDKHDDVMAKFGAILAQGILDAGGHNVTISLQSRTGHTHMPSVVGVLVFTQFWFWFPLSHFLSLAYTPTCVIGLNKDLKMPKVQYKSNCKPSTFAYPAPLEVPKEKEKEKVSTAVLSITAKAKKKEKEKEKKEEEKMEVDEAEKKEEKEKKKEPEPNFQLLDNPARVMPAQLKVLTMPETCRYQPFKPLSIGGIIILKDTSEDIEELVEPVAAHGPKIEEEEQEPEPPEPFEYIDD
T2 sequence (Q9UI12 whole entry): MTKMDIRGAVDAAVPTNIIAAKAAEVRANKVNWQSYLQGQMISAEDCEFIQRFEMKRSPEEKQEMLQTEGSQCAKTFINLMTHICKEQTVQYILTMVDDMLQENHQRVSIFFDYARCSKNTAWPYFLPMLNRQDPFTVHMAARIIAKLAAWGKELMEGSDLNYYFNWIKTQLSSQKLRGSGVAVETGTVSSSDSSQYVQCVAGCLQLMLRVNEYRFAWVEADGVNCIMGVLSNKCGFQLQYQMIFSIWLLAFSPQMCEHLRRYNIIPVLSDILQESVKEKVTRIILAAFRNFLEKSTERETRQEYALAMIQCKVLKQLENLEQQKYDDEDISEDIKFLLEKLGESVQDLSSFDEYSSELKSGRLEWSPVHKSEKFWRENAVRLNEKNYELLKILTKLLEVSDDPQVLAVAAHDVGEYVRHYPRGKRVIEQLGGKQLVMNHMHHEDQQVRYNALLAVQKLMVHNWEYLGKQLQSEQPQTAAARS

SMILES	fold changes relative to vehicle control ([1]; HeLa, captured protein PSMA5)	fold changes relative to vehicle control ([2]; HeLa, protein ATP6V1H)	fold changes relative to vehicle control ([3]; HeLa, protein AHCY)	fold changes relative to vehicle control ([4]; HeLa, captured protein PRDX2)	fold changes relative to vehicle control ([5]; HeLa, captured protein HDAC6)	fold changes relative to vehicle control ([6]; HeLa, protein MTHFD2L)	fold changes relative to vehicle control ([7]; protein NP, HeLa)	fold changes relative to vehicle control ([8]; protein PSMD1, HeLa)	fold changes relative to vehicle control ([9]; HeLa, protein CSTB)	fold changes relative to vehicle control ([1]; HeLa, protein PSMA5)	fold changes relative to vehicle control ([3]; protein AHCY, HeLa)	fold changes relative to vehicle control ([4]; protein PRDX2, HeLa)	fold changes relative to vehicle control ([5]; captured protein HDAC6, HeLa)	further results
Nc1nc2c(c(=O)[nH]1)N(C=O)C(CNc1ccc(C(=O)N[C@@H](CCC(=O)O)C(=O)O)cc1)CN2 (stereo partly drawn) [LEU, leucovorin]	1.03	1.04	0.98	1.05	1.02	0.9	0.9	0.88	1.07					
Nc1nc2[nH]cc(CCc3ccc(C(=O)N[C@@H](CCC(=O)O)C(=O)O)cc3)c2c(=O)[nH]1 [PTX, pemetrexed]														fold changes relative to vehicle control [1]: 1.04; fold changes relative to vehicle control [2]: 0.99; fold changes relative to vehicle control [3]: 0.98; fold changes relative to vehicle control [4]: 1.17; fold changes relative to vehicle control [5]: 0.98; fold changes relative to vehicle control [6]: 0.9; fold changes relative to vehicle control [7]: 0.89; fold changes relative to vehicle control [8]: 0.99; fold changes relative to vehicle control [9]: 1.26
CCCCCCOc1ccc(Cc2cnc(N)nc2N)cc1 [compound 1]		1.24				0.3	1.16	1.3	1.08	1.05	1.01	1.36	0.95	
CCCCCCOc1cccc(Cc2cnc(N)nc2N)c1 [compound 2]		1.21				0.89	1.4	1.78	0.99	1.19	1.26	2.19	1.1	
Nc1nc2cccc(-c3ccccc3)c2n1Cc1ccc(Cl)c(Cl)c1 [compound 3]		1.17				1.07	0.96	1.14	1.17	1	0.86	0.89	1.14	
NCCOCCOCC(=O)Nc1nc2ncc(CNc3ccc(C(=O)NC(CCC(=O)O)C(=O)O)cc3)nc2c(=O)[nH]1 (stereo not drawn) [compound 6]	1.08	1.13	1.13	1.18	1.06	0.97	1.08	1.08	1.29					
NCCCNc1ccc(C(=O)NC(CCC(=O)O)C(=O)O)cc1 (stereo not drawn) [compound 7]	0.99	1.01	0.99	0.89	1.02	1	0.89	1.16	1.24					
